# Active and inactive are the calls of the source. The rule behind the calls is not given here.
# Legend:
# [1] = system: RAW264.7; assay: Cytotoxicity against mouse RAW264.7 cells […] measured after 24 hrs by MTT assay; assay type: cell-based; conditions: RAW264.7, 24 h
# [2] = system: RAW264.7; assay: Antiinflammatory activity in mouse RAW264.7 cells assessed as inhibition of LPS-induced NO production at 100 uM measured after 24 hrs by Griess method; assay type: functional
# [3] = organism: Danio rerio; assay: Antiinflammatory activity in transgenic fluorescent Zebrafish assessed as reduction in CuSO4 induced number of macrophage migration at 10 to 50 uM measured after 1 hr by fluorescence microscopic analysis; assay type: functional, organism-based; conditions: dose 10-50 µM
structure (smiles),measurement,setting,value
C[C@@H]1CC[C@@]2(C)[C@H](C)C3=CC(=O)N[C@@H]3C[C@@]12C,IC50,[1],> 100 µM
same,Activity,[2],inactive
C[C@@H]1CC[C@@]2(C)[C@H](C)[C@]3(C[C@@]12C)C(=O)O[C@H]1O[C@H]13,IC50,[1],> 100 µM
same,Activity,[2],inactive
CCO[C@@]12C[C@@]3(C)[C@H](C)CC[C@@]3(C)[C@H](C)C1=CC(=O)O2,IC50,[1],> 100 µM
same,Activity,[2],83.54%
same,Activity,[3],Active
CCOC(=O)C1=C(C)[C@]2(C)CC[C@@H](C)[C@]2(C)CC1=O,IC50,[1],> 100 µM
same,Activity,[2],inactive
C=C1[C@@]2(CC=O)O[C@H](OC2=O)[C@@]2(C)[C@H](C)CC[C@@]12C,IC50,[1],> 100 µM
same,Activity,[2],83.15%
same,Activity,[3],inactive
CO[C@@]12C[C@@]3(C)[C@H](C)CC[C@@]3(C)[C@H](C)C1=CC(=O)O2,IC50,[1],> 100 µM
same,Activity,[2],inactive
C[C@@H]1CC[C@@]2(C)[C@H](C)C3=CC(=O)O[C@]3(O)C[C@@]12C,IC50,[1],> 100 µM
same,Activity,[2],96.28%
same,Activity,[3],inactive
CC1=C(CC(=O)O)C(=O)C[C@@]2(C)[C@H](C)CC[C@@]12C,IC50,[1],> 100 µM
same,Activity,[2],inactive
CCOC(=O)/C=C1\C(=O)C[C@@]2(C)[C@H](C)CC[C@@]2(C)[C@@H]1C,IC50,[1],> 100 µM
same,Activity,[2],inactive
C=C1[C@]2(C)CC[C@@H](C)[C@]2(C)C[C@@]2(O)O[C@@H](OCC)[C@H](O)[C@@]12OCC,IC50,[1],> 100 µM
same,Activity,[2],inactive
C[C@@H]1CC[C@@]2(C)[C@H](C)C3=CC(=O)NC3=C[C@@]12C,IC50,[1],> 100 µM
same,Activity,[2],inactive

# Reference: ChEMBL document CHEMBL5036360, “Pinguisane Sesquiterpenoids from the Chinese Liverwort Trocholejeunea sandvicensis and Their Anti-Inflammatory Activity” (J Nat Prod, 2022)
